# Measurements reported in article PMC7663263 (Molecules, 2020).
# Columns and labels:
# [1] = target: T1, S. mansoni TGR (Schistosoma mansoni, UniProt Q962Y6); assay: biochemical; conditions: 40 nM enzyme, 3 mM DTNB; after 10 min preincubation; read-out: IC50 S. mansoni TGR, substrate DTNB (original data)
# T1 construct: made in house; host or cells: E. coli
# T1 sequence (Q962Y6 1-598): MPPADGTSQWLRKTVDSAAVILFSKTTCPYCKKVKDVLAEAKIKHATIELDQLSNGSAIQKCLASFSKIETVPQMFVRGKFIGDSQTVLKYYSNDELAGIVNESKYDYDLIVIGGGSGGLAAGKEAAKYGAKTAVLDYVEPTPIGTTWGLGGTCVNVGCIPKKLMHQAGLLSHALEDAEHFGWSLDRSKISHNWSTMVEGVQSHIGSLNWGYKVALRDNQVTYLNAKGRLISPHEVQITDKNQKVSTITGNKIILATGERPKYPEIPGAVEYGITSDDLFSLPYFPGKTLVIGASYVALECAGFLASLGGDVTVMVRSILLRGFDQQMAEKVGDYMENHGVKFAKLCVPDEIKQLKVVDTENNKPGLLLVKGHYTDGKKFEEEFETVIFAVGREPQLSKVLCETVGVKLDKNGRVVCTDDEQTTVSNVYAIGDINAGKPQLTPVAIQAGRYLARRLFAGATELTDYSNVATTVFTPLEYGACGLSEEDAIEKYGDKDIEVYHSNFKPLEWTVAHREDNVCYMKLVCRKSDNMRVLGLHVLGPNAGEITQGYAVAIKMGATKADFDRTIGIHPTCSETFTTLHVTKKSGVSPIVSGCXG
# Description: Enzymes were prepared in E. coli as described. Assays were performed at 25 °C in 0.1 M potassium phosphate (pH 7.4), 10 mM EDTA using 100 μM NADPH and 3 mM dithiobis(2-nitrobenzoic acid) (DTNB). […] The increase in A412 during the first 3 min was recorded upon DTNB addition. The reaction was done in triplicate.
# [2] = test system: T. b. brucei Squib-427 strain; assay: Anti-trypanosomal activity, T. b. brucei trypomastigotes (resazurin); type: cell-based, Trypanosoma brucei brucei; conditions: 72 h
# Description: Anti-trypanosomal activity: T. b. brucei Squib-427 strain (suramin-sensitive) and T. b. gambiense (ITMAP/1893) were cultured at 37 °C and 5% CO2 in HMI-9 medium supplemented with 10% FCS [90]. About 10^4 trypomastigotes/well were added to each well and parasite growth was assessed after 72 h at 37 °C by adding resazurin and reading at ex 550 nm, em 590 nm. Suramin was included as reference drug for T. b. brucei and pentamidine for T. b. gambiense.
# [3] = test system: L. infantum MHOM/MA (BE)/67 amastigotes; assay: Anti-leishmanial activity, L. infantum amastigotes in primary peritoneal mouse macrophages; type: cell-based, Leishmania infantum; conditions: amastigotes in primary peritoneal mouse macrophages, 5 days; read-out: Leishmania infantum IC50 (µM) ± SD
# Description: Anti-leishmanial activity: L. infantum MHOM/MA (BE)/67 amastigotes were collected from the spleen of an infected donor hamster and used to infect primary peritoneal mouse macrophages grown in a 96-well plate. After 2 days outgrowth, 5 × 10^5 amastigotes were added to each well and incubated for 2 h at 37 °C. The compounds were subsequently added and the plates were further incubated for 5 days at 37 °C and 5% CO2. Parasite burdens (mean number of amastigotes/macrophage) were microscopically assessed on 500 cells after Giemsa staining and expressed as a percentage of the blank controls. Miltefosine was included as reference drug. The use of laboratory rodents was carried out in accordance to all mandatory guidelines (EU directives, including the Revised Directive 2010/63/EU on the Protection of Animals used for Scientific Purposes that came into force on 1 January 2013, and the declaration of Helsinki in its latest version) and was approved by the Ethical Committee of the University of Antwerp, Belgium [UA-ECD 2011–77 (17-02-2012 and UA-ECD 2015-90].
# [4] = test system: Leishmania donovani LV9 axenic amastigotes; assay: L. donovani LV9 axenic amastigotes (resazurin); type: cell-based; conditions: read-out: Leishmania donovani LV9 Axenic Amastigotes IC50 (µM) ± SD
# Description: (§1) In vitro anti-leishmanial evaluation was perfomed on both axenic and intramacrophage L. donovani amastigotes as previously described. […] Briefly, compounds were distributed in 96-well plates using 2-fold dilutions in 100 µL PYG medium. A. castellanii trophozoites were added to each well at 5 × 10^4 amoeba/mL in 200 µL final volume. L. donovani axenic amastigotes were added to each well at 10^6 parasites/mL in 200 µL final volume. After 72 h incubation at 27 °C, 20 µL of 1 mM resazurin was added to each well and further incubated at 27 °C for 8 h for A. castellanii and for 24 h for L. donovani axenic amastigotes. In living cells, resazurin is reduced in resorufin. This conversion is monitored by measuring the absorbance at specific wavelengths of resorufin (570 nm) and resazurin (600 nm) using a microplate reader (Labsystems Multiskan MS, McLean, VA, USA). In this assay, the activity was expressed in IC50. Miltefosine and pentamidine were used as reference drugs. All experiments were performed in three independent experiments.
# [5] = test system: Leishmania donovani LV9 intramacrophage amastigotes; assay: L. donovani LV9 intramacrophage amastigotes; type: cell-based; conditions: read-out: Leishmania Donovani LV9 Intramacrophage Amastigotes IC50 (µm) ± SD
# Description: as §1
# [6] = test system: RAW 264.7 macrophages; assay: Cytotoxicity on RAW 264.7 macrophages; type: cell-based, murine; conditions: 48 h incubation; read-out: Cytotoxicity on RAW 264.7 Macrophages CC50 (µM) ± SD
# Description: Cytotoxicity was evaluated on RAW 264.7 macrophages that were maintained at 37 °C with 5% CO2 in Dulbecco’s Modified Eagle’s Medium (DMEM, Invitrogen, Toulouse, France) supplemented with 100 U/mL penicillin-streptomycin (Invitrogen) and 10% heat-inactivated fetal bovine serum, as previously described. Briefly, cells were plated in 96-well microplates at a density of 2 × 10^4 cells per well. After incubation for 24 h at 37 °C in 5% CO2, the medium was removed from each well and 100 µL of medium containing 2-fold serial dilutions of compounds was added to each well. After 48 h incubation at 37 °C in 5% CO2, 10 µL of 450 µM resazurin was added to each well and further incubated in the dark for 4 h. Cell viability was determined as described above. The cytotoxicity of the compounds was expressed as CC50.
# [7] = test system: Human TrxR; conditions: 3.7 nM enzyme, 3 mM DTNB; after 10 min preincubation; read-out: IC50 Human TrxR, substrate DTNB; cited from earlier work
compound,measurement,setting,value
"CC(=O)OCC1OC([S][Au][PH]2(c3ccccc3)C(c3ccccn3)=CC=C2c2ccccn2)C(OC(C)=O)C(OC(C)=O)C1OC(C)=O [GoPI-sugar, 1-thio-β-D-glucopyranose 2,3,4,6-tetraacetato-S-Au{1-phenyl-2,5-di(2-pyridyl)phosphole}]",IC50,[1],12.5 nM
same,IC50,[2],1830 nM
same,IC50,[3],2.38 µM
same,IC50,[4],1.45 ± 0.07 µM
same,IC50,[5],420 ± 150 nM
same,CC50,[6],4.35 ± 0.04 µM
same,IC50,[7],0.49 ± 0.04 nM
